Reference: PubChem BioAssay AID1963977 (Molecular Pharmacology Branch, DTP, NCI, 2024)
Values joined by “and” are separate entries in the source; they are usually repeats but may differ in a detail not shown here. Identical values can stand only once. Each block holds one molecule with its values, some of them ahead of it.

Tested on: 624824-186-R-J3-PDC multicell spheroids, viability
Assay: Anticancer human tumor 624824-186-R-J3-PDC patient-derived colon adenocarcinoma cell line growth inhibition [PI3K]
Conditions: for viability, T/C: stronger effect = lower value
From the text: Combinatorial screen of targeted agents with the PI3K inhibitors inavolisib, alpelisib, duvelisib, and copanlisib in multi-cell type tumor spheroids
A high-throughput screen of multi-cell type tumor spheroids was designed to identify active combinations of targeted small molecules and PI3K pathway inhibitors. Complex spheroids include a stromal component modeled by human endothelial cells (HUVEC) and fibroblasts modeled by human mesenchymal stem cells (MSCs). The concentration ranges selected for each drug and investigational agent were based upon clinically achievable concentrations if the clinical Cmax of the agent was known.
Compounds. The drugs and investigational agents: inavolisib (NSC800729), alpelisib (NSC765974), duvelisib (NSC772469), copanlisib (NSC816437), ipatasertib (NSC767898), afuresertib (NSC778305), talazoparib (NSC767125), sapanisertib (NSC764658), selumetinib (NSC741078), tovorafenib (DAY101, NSC766906), vemurafenib (NSC761431), ravoxertinib (NSC781343), sotorasib (NSC818433), MRTX1133 (NSC 836407), abemaciclib (NSC 768073), palbociclib (NSC758247), venetoclax (NSC 766270), SY5609 (NSC837396), enzalutamide (NSC755605), and darolutamide (NSC825331), were obtained from the National Cancer Institute (NCI) Developmental Therapeutics Program Chemical Repository. The FDA-approved anticancer drug set is available from the NCI Developmental Therapeutics Program. […] The stock solutions were prepared in dimethyl sulfoxide (DMSO, Sigma-Aldrich, St. Louis, MO, cat. D2650) at 800-fold the tested concentration and stored at -70 degrees C prior to their use. All drugs and investigational agents were tested over a range starting from a high concentration at or near the clinical Cmax and decreasing in half-log increments. If the clinical Cmax for an agent had not been determined, the highest concentration tested was 10 microM.
Cell Culture. All cells were maintained in an incubator at 37 degrees C and 5% CO2 with 95% humidity. The PDC lines were cultured according to standard operating procedures established by the NCI PDMR (https://pdmr.cancer.gov/sops/default.htm). All PDCs were thawed and cultured in Matrigel-coated flasks prepared with a working solution of 1X Ham's F-12 nutrient mix, without supplementation (Invitrogen, Waltham, MA, cat. 11765054), 100 U/mL penicillin-streptomycin (Invitrogen, cat. 15140122), and 2.5% Matrigel (Corning Inc., Corning, NY, cat. 354248) for the first three passages. The 354836-022-R-J1-PDC, 475296-252-R-J1-PDC, and 997726-040-R-J2-PDC lines were cultured in 6A media, which includes advanced DMEM/F-12 (Thermo Fisher Scientific, cat. 12634028), 10 mM HEPES (Thermo Fisher Scientific, cat. 15630080), 1X GlutaMAX supplement (Thermo Fisher Scientific, cat. 35050061), 0.1 mg/mL primocin (InvivoGen, San Diego, CA, cat. ant-pm-2), 10% defined fetal bovine serum, heat inactivated (HyClone Laboratories Inc., Logan, UT, cat. SH30070.03HI), 50% L-WRN conditioned media (ATCC, cat. CRL-3276), 1.25 mM N-Acetyl-L-cysteine (Sigma-Aldrich, cat. A9165), 10 mM nicotinamide (Sigma-Aldrich, cat. N0636), 1X B-27 supplement (Thermo Fisher Scientific, cat. 17504044), 1X N-2 supplement (Thermo Fisher Scientific, cat. 17502048), and 10 microM Y-27632 dihydrochloride (Tocris Bioscience, Bristol, United Kingdom, cat. 1254). The 624824-186-R-J2-PDC line was cultured in 6C/Colon 1B media, which includes all 6A media components plus 50 ng/mL human EGF recombinant protein (Thermo Fisher Scientific, cat. PHG0311). […]
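Further: spheroids exposed to agents for seven days before luminescence read.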
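Wherever viability, T/C is given: luminescent signal used as a stand-in for spheroid viability; percent viability relative to DMSO vehicle control wells taken as 100%.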

IC50 (curve of compound): 2050 nM and 1780 nM and 2370 nM
Structure (SMILES): Cn1cnc2c(F)c(Nc3ccc(Br)cc3Cl)c(C(=O)NOCCO)cc21
viability, T/C (compound 0.00949 µM): 97.1% and 99.4% and 96.4%
viability, T/C (compound 0.03 µM): 87.8% and 93.3% and 90.5%
viability, T/C (compound 0.0949 µM): 89.1% and 88.9% and 83.9%
viability, T/C (compound 0.3 µM): 88.5% and 82.7% and 75.8%
viability, T/C (compound 0.949 µM): 67.2% and 63.3% and 74.6%
viability, T/C (compound 3 µM): 41.4% and 38.2% and 43.1%

IC50 (curve of first compound, second compound 0.00316 µM): > 100 nM
IC50 (curve of first compound, second compound 0.01 µM): > 100 nM
IC50 (curve of first compound, second compound 0.0316 µM): > 100 nM
IC50 (curve of first compound, second compound 0.1 µM): > 100 nM
IC50 (curve of first compound, second compound 0.316 µM): < 0.316 nM
IC50 (curve of first compound, second compound 1 µM): < 0.316 nM
Structure (SMILES): Cn1ncnc1[C@H]1c2n[nH]c(=O)c3cc(F)cc(c23)N[C@@H]1c1ccc(F)cc1 + COc1c(OCCCN2CCOCC2)ccc2c3n(c(=NC(=O)c4cnc(N)nc4)nc12)CCN3
viability, T/C (second compound 0.00316 µM, first compound 0.000316 µM): 103%
viability, T/C (second compound 0.00316 µM, first compound 0.001 µM): 97.5%
viability, T/C (second compound 0.00316 µM, first compound 0.00316 µM): 102%
viability, T/C (second compound 0.00316 µM, first compound 0.01 µM): 96.3%
viability, T/C (second compound 0.00316 µM, first compound 0.0316 µM): 90.1%
viability, T/C (second compound 0.00316 µM, first compound 0.1 µM): 102%
viability, T/C (second compound 0.01 µM, first compound 0.000316 µM): 115%
viability, T/C (second compound 0.01 µM, first compound 0.001 µM): 110%
viability, T/C (second compound 0.01 µM, first compound 0.00316 µM): 102%
viability, T/C (second compound 0.01 µM, first compound 0.01 µM): 93.1%
viability, T/C (second compound 0.01 µM, first compound 0.0316 µM): 97.1%
viability, T/C (second compound 0.01 µM, first compound 0.1 µM): 107%
viability, T/C (second compound 0.0316 µM, first compound 0.000316 µM): 91.1%
viability, T/C (second compound 0.0316 µM, first compound 0.001 µM): 103%
viability, T/C (second compound 0.0316 µM, first compound 0.00316 µM): 88.5%
viability, T/C (second compound 0.0316 µM, first compound 0.01 µM): 90.8%
viability, T/C (second compound 0.0316 µM, first compound 0.0316 µM): 87.2%
viability, T/C (second compound 0.0316 µM, first compound 0.1 µM): 97.3%
viability, T/C (second compound 0.1 µM, first compound 0.000316 µM): 77.1%
viability, T/C (second compound 0.1 µM, first compound 0.001 µM): 76%
viability, T/C (second compound 0.1 µM, first compound 0.00316 µM): 83.1%
viability, T/C (second compound 0.1 µM, first compound 0.01 µM): 73.3%
viability, T/C (second compound 0.1 µM, first compound 0.0316 µM): 75.3%
viability, T/C (second compound 0.1 µM, first compound 0.1 µM): 71%
viability, T/C (second compound 0.316 µM, first compound 0.000316 µM): 48.3%
viability, T/C (second compound 0.316 µM, first compound 0.001 µM): 48.3%
viability, T/C (second compound 0.316 µM, first compound 0.00316 µM): 54%
viability, T/C (second compound 0.316 µM, first compound 0.01 µM): 44.9%
viability, T/C (second compound 0.316 µM, first compound 0.0316 µM): 48.7%
viability, T/C (second compound 0.316 µM, first compound 0.1 µM): 46%
viability, T/C (second compound 1 µM, first compound 0.000316 µM): 27.3%
viability, T/C (second compound 1 µM, first compound 0.001 µM): 28%
viability, T/C (second compound 1 µM, first compound 0.00316 µM): 30.1%
viability, T/C (second compound 1 µM, first compound 0.01 µM): 25.9%
viability, T/C (second compound 1 µM, first compound 0.0316 µM): 23.9%
viability, T/C (second compound 1 µM, first compound 0.1 µM): 27%
